Results taken from ChEMBL document CHEMBL3769388, “Optimization of a Dicarboxylic Series for in Vivo Inhibition of Citrate Transport by the Solute Carrier 13 (SLC13) Family” (J Med Chem, 2016).

Experiments:
[1] = target: T1, Na(+)/citrate cotransporter (Homo sapiens, UniProt Q86YT5); experiment: Inhibition of NaCT (unknown origin) expressed in HEK293 cells assessed as inhibition of [14C]citrate uptake by microbeta plate reader analysis; type: cell-based
[2] = Fraction unbound in Wistar Han rat by equilibrium dialysis method; type: ADME
[3] = Total plasma clearance in Wistar Han rat at 1 mg/kg, iv by LC-MS/MS analysis; type: ADME, organism-based
[4] = Renal clearance in Wistar Han rat at 1 mg/kg, iv by LC-MS/MS analysis; type: ADME, organism-based, Kidney; settings: in vivo
[5] = Volume of distribution at steady state in Wistar Han rat at 1 mg/kg, iv by LC-MS/MS analysis; type: ADME, organism-based; settings: in vivo, read-out: Vdss
[6] = Half life in Wistar Han rat at 1 mg/kg, iv by LC-MS/MS analysis; type: ADME, organism-based; settings: in vivo
[7] = AUC(0 to t) in Wistar Han rat at 5 mg/kg, po by LC-MS/MS analysis; type: ADME, organism-based; settings: in vivo
[8] = target: T1, Na(+)/citrate cotransporter; experiment: Inhibition of NaCT in human hepatocytes assessed as [14C]-citrate uptake after 30 mins by scintillation counting method; type: cell-based, Hepatocyte
[9] = target: T2, Solute carrier family 13 member 2 (Homo sapiens, UniProt Q13183); experiment: Inhibition of NaDC1 (unknown origin) expressed in HEK293 cells assessed as inhibition of [14C]citrate uptake by microbeta plate reader analysis; type: cell-based; settings: read-out: IC50
T2 sequence (Q13183 whole entry): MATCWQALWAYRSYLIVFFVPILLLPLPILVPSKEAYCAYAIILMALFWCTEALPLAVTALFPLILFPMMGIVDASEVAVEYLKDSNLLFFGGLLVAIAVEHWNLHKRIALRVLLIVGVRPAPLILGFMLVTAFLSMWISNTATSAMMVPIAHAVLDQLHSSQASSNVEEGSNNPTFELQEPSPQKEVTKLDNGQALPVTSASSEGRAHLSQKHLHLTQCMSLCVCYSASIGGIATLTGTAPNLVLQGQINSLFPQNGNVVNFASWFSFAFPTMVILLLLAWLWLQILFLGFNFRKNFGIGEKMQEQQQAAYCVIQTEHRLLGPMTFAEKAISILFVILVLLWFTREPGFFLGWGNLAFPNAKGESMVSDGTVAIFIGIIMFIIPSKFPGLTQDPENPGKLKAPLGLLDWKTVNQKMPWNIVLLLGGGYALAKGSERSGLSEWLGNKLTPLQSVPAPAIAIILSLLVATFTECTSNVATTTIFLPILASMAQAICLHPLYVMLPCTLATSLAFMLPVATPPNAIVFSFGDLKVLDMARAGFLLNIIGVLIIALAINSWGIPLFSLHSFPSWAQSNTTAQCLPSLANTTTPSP

[10] = Passive permeability in MDCK cells; type: ADME, cell-based, Canis lupus familiaris; settings: dog
[11] = Clearance in human hepatocytes assessed per 10^6 cells; type: ADME, cell-based, Hepatocyte; settings: read-out: CLH

T1 sequence (Q86YT5 whole entry): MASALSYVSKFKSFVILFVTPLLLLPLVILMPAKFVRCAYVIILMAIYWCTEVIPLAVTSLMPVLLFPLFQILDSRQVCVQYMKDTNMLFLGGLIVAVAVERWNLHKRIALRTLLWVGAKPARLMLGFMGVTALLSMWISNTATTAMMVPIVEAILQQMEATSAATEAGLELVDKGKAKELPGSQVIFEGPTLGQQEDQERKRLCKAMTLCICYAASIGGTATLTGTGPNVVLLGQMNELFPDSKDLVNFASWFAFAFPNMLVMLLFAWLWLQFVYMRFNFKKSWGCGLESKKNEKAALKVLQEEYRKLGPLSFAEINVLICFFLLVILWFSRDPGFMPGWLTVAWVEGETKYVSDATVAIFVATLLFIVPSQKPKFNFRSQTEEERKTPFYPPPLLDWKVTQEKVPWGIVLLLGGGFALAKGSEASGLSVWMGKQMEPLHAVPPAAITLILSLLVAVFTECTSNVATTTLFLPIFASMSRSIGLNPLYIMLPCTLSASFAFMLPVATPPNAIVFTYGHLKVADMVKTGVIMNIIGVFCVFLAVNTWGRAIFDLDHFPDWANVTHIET

| Structure (SMILES) | IC50 ([1]; read-out: IC50) [nM] | fraction unbound [2] | clearance [3] [mL/min/kg] | CL renal [4] [mL/min/kg] | Vd [5] [L/kg] | half-life [6] [h] | AUC(0-t) [7] [ng·h/mL] | also measured |
| --- | --- | --- | --- | --- | --- | --- | --- | --- |
| COc1ncc(C)cc1CC[C@](O)(CC(=O)O)C(=O)O | > 18000 | 0.058 | 9.9 | 2.8 | 0.2 | 1 | 499 |  |
| COc1ccc(C)cc1CCC(O)(CC(=O)O)C(=O)O (racemic) | 1650 |  |  |  |  |  |  |  |
| CC(C)(C)c1ccc(CC[C@@](O)(CC(=O)O)C(=O)O)cc1 |  | 0.054 | 4.5 | 0.5 | 0.24 | 1 | 2570 | IC50 [9]: > 100000 nM; Papp [10]: 1 ×10⁻⁶ cm/s; hepatocyte CLint [11]: < 6 µL/min/1e6 cells |
| CC(C)(C)c1ccc(CCC(O)(CC(=O)O)C(=O)O)cc1 (racemic) |  | 0.073 | 8.5 | 1.9 | 0.45 | 1.2 | 1850 |  |
| O=C(O)CC(O)(CCc1ccccc1)C(=O)O (racemic) | > 17000 |  |  |  |  |  |  |  |
| CCOc1ncc(C)cc1CCC(O)(CC(=O)O)C(=O)O (racemic) | 190 |  |  |  |  |  |  |  |
| CC(C)Oc1ncccc1CCC(O)(CC(=O)O)C(=O)O (racemic) | 330 |  |  |  |  |  |  |  |
| COc1ncc(C)cc1CCC(O)(CC(=O)O)C(=O)O (racemic) | 650 |  |  |  |  |  |  | IC50 ([1]; read-out: pIC50 (converted)): 316 nM |

Now from value to compound, other results behind:

| IC50 ([1]; read-out: IC50) [nM] | fraction unbound [2] | clearance [3] [mL/min/kg] | CL renal [4] [mL/min/kg] | Vd [5] [L/kg] | half-life [6] [h] | AUC(0-t) [7] [ng·h/mL] | Structure (SMILES) | also measured |
| --- | --- | --- | --- | --- | --- | --- | --- | --- |
| 3370 |  |  |  |  |  |  | COc1ncccc1CCC(O)(CC(=O)O)C(=O)O (racemic) |  |
| 110 | 0.086 | 6.7 | 1.8 | 0.13 | 0.9 | 2650 | CCOc1ncccc1CC[C@@](O)(CC(=O)O)C(=O)O | IC50 [8]: 330 nM |
| 110 |  |  |  |  |  |  | CCOc1ncccc1CCC(O)(CC(=O)O)C(=O)O (racemic) |  |
| > 25000 |  |  |  |  |  |  | CCOc1ncccc1CC[C@](O)(CC(=O)O)C(=O)O | IC50 [8]: > 30000 nM |
